According to PubChem BioAssay (NCI):
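Compound exposure: 48 hours, 5 concentrations, 96-well plates. GI50: concentration for 50% inhibition of growth. TGI marks complete inhibition of growth.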

Legend:
Assay in all cases: growth of human tumour cells (NCI), 48 h
[1] = test system: BT-549 breast
[2] = test system: HL-60(TB) leukemia
[3] = test system: K-562 leukemia
[4] = test system: M14 melanoma
[5] = test system: MOLT-4 leukemia
[6] = test system: NCI-H226 lung
[7] = test system: NCI/ADR-RES ovarian
[8] = test system: RXF 393 renal
[9] = test system: SNB-19 CNS
[10] = test system: UO-31 renal

| SMILES | TGI [1] [µM] | TGI [2] [µM] | TGI [3] [µM] | TGI [4] [µM] | TGI [5] [µM] | TGI [6] [µM] | TGI [7] [µM] | TGI [8] [µM] | TGI [9] [µM] | TGI [10] [µM] | GI50 [4] [µM] | GI50 [5] [µM] | GI50 [7] [µM] | GI50 [8] [µM] | GI50 [9] [µM] | GI50 [10] [µM] |
| --- | --- | --- | --- | --- | --- | --- | --- | --- | --- | --- | --- | --- | --- | --- | --- | --- |
| CC#CCOC(=O)c1ccccc1OC(C)=O | > 100 | > 100 | > 100 | > 100 | > 100 | > 100 | > 100 | > 100 | > 100 | > 100 |  |  |  |  |  |  |
| COc1ccc(-[n+]2nc(S(=O)(=O)O)c(/C=C/c3ccc(N(C)C)cc3)cc2C#N)cc1 | > 100 |  | > 100 | > 100 | > 100 | > 100 | > 100 |  | > 100 | > 100 |  |  |  |  |  |  |
| CCC(C)OC(=O)/C(Br)=C1/OC(=O)c2ccccc2-c2ccccc21 (stereo not drawn) | 37.1 | > 100 | 40.6 | > 100 | 50.7 | > 100 | 71.4 | 21.5 | > 100 | 73 |  |  |  |  |  |  |
| CCCCCCOC(=O)/C=C/[C@]1(CO)C/C(=C/CC(C(C)C)C(C)C)C(=O)O1 | 22.9 | 23.2 | 31.2 | 25.1 | 25.6 | 16.7 | 28.1 | 36.9 | 22.6 | 17.8 |  |  |  |  |  |  |
| O=c1cc(-c2cccc3ccccc23)[nH]c2ncccc12 | > 100 | 0.0315 | > 100 | > 100 | > 100 | > 100 | > 100 |  | > 100 | > 100 | 0.0275 | 0.0449 | 0.0173 | 11.9 | 0.0366 | 0.0741 |
| Nc1ncnc2c1ncn2[C@@H]1C[C@@H]1CO | > 100 | > 100 | > 100 |  | > 100 | > 100 | > 100 |  | > 100 | > 100 |  |  |  |  |  |  |
| CCOC(=O)NC(Nc1ccc(S(=O)(=O)Nc2nc(C)cc(C)n2)cc1)(C(=O)OCC)C(F)(F)F (stereo not drawn) | > 100 | > 100 | > 100 | > 100 | > 100 | > 100 |  | > 100 | > 100 | > 100 |  |  |  |  |  |  |
| CN=C(N=Nc1c(O)[nH]c2ccccc12)SCC(=O)c1ccc(Br)cc1 | > 100 | > 100 | > 100 | 39.3 | > 100 | 48.4 | 27 | 19.2 | > 100 | 3.79 |  |  |  |  |  |  |
| CCOC(=O)CC[C@H](NC(=O)[C@H](N)Cc1ccc(N(CCCl)CCCl)cc1)C(=O)OCC | > 65.3 | 36.6 | > 100 | 21.8 | 6.85 | > 72 | 30.9 | 29.7 | > 96 | 29.8 |  |  |  |  |  |  |
| Nc1nc(N)c2c3c(cnc2n1)CC(c1ccccc1)CC3 (stereo not drawn) | 81.8 | 24.8 | > 100 | > 100 | > 100 | > 100 | > 100 | 47.9 | 46.8 |  |  |  |  |  |  |  |
| COc1ccc2cc(/C=N/NC(=O)Nc3ccccc3)ccc2c1 | > 100 | > 100 | > 100 | > 100 | > 100 | > 100 | > 100 |  | > 100 | > 100 |  |  |  |  |  |  |
